Measured values as given in paper PMC4374931 (PLoS ONE, 2015).
Read-outs that look alike come from different tables or passages of the source.

Experiments:
[1] = target: androgen receptor; parameters: method as in Wilkinson et al.; settings: published data; ref Wilkinson et al.; cited from earlier work
[2] = target: T1, human androgen receptor (Homo sapiens, UniProt P10275); test: Gene reporter assay in AIZ-AR cells, agonist mode (luciferase); format: cell-based
Protocol: (§1) AIZ-AR cells were seeded in 96-well plates at density 5x10^4 cells per well. […] After the treatments, cells were lysed and luciferase activity was measured in 96-well plate format using Tecan Infinite M2000 plate luminometer.
(§2) Dose-response analyses assays were performed in two different experimental layouts. […] Where appropriate, IC50 (half maximal inhibitory concentration) values were calculated.

[3] = test system: firefly luciferase; test: Inhibition of firefly luciferase in cell lysates; format: biochemical; settings: compounds 10 μM added to lysates of cells treated with 100 nM DHT; data not shown
Protocol: AIZ-AR cells were treated with 100 nM DHT for 24 hours. Cell lysates containing firefly luciferase, having a catalytic activity corresponding to model ligand-treated cells, were isolated. Tested compounds (10 μM) were added to cell lysates and luciferase activity was measured.

[4] = target: androgen receptor; parameters: method as in Sedlak et al.; settings: published data; ref Sedlak et al.; cited from earlier work
[5] = in vitro; format: cell-based; settings: human
Protocol: AIZ-AR cells were seeded in 96-well plates at density 5x10^4 cells per well. […] Following the incubation, MTT assay was measured spectrophotometrically at 540 nm using Tecan Infinite M2000 plate luminometer.

[6] = target: T1, human androgen receptor; test: Gene reporter assay in AIZ-AR cells, antagonist mode with DHT (100 nM); format: cell-based
Protocol: as §1, §2

[7] = test system: androgen receptor; settings: cited from earlier work

T1 sequence (P10275 whole entry): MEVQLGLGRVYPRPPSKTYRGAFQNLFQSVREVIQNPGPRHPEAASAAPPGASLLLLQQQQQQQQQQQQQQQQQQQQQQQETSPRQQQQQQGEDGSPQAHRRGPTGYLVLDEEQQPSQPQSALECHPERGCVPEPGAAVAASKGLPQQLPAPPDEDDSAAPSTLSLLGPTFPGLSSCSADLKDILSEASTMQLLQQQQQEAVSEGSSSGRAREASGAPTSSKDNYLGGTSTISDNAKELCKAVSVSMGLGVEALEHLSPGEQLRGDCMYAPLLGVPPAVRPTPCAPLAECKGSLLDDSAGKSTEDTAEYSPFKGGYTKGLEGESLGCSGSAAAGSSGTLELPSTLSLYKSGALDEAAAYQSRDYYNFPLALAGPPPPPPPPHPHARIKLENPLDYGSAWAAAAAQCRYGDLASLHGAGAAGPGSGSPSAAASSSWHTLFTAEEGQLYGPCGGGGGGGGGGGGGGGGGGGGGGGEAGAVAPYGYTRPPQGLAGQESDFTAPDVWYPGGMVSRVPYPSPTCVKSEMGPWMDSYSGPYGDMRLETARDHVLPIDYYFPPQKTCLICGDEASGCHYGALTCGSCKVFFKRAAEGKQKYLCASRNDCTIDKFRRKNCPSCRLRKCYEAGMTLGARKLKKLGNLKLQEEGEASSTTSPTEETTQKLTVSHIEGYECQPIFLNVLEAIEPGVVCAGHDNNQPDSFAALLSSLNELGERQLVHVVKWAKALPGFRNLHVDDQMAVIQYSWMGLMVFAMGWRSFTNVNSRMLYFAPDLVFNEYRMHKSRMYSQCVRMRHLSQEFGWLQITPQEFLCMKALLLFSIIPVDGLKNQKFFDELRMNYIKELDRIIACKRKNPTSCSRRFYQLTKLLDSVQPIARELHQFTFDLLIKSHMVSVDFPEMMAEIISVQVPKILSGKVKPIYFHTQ

Row | SMILES | Literature Log EC50 [1] | Log EC50 ([2]; Clone 8, 24 h) | Log EC50 ([2]; Clone 14, 24 h) | influence on firefly luciferase catalytic activity [3] | Literature Log EC50 [4] | viability at 24 h, 0.1 nM [5] [%] | viability at 24 h, 1 nM [5] [%] | viability at 24 h, 10 nM [5] [%] | viability at 24 h, 100 nM [5] [%] | viability at 24 h, 1 μM [5] [%] | viability at 24 h, 10 μM [5] [%] | agonist-induced luciferase activity ([6]; antagonist mode, 10^-5 M, probably due to luciferase inhibition) | effect on agonist-induced luciferase activity in antagonist mode ([6]; with DHT (100 nM) or testosterone (10 nM) as agonist, 24 h) | Response of AR-LUX cell line (induction) [7]
1 | O=c1c(-c2ccc(O)cc2)coc2cc(O)cc(O)c12 [Genistein, genistein] | > -5.00 | -6.62 ± 0.42 | -6.79 ± 0.23 | significantly influenced luciferase activity | > -5.00 | 100 | 96.5 ± 2.4 | 96.7 ± 3.3 | 103 ± 7.5 | 103 ± 7.5 | 120 ± 6.4 | massive drop | strongly augmented agonist-induced luciferase activity | –
2 | C[C@]1(O)CC[C@H]2[C@@H]3CCC4=CC(=O)CCC4=C3C=C[C@@]21C [R1881] | – | – | – | – | – | – | – | – | – | – | – | – | – | maximally five-fold induction
